We go through one substance from paper PMC3693772, “Protein expression, biochemical pharmacology of signal transduction, and relation to intraocular pressure modulation by bradykinin B2 receptors in ciliary muscle” (Molecular Vision, 2013).

Entries after “also recorded” stand apart in the source; their conditions may differ. Like-named read-outs stand apart in the source and are kept apart here.

Test [1] concerns pro-MMP-3, h-CM cells. Briefly: pro-MMP-3 release from h-CM cells. The class given is cell-based, human. The following applies: BK 10 nM to 1 µM, 24 h at 37 °C; n=5. The procedure:
(§1) Measurement of extracellular signal-regulated kinase-1/2 phosphorylation and pro-matrix metalloproteinase production
(§2) The release of pro-MMP-1/2/3 in the extracellular medium of h-CM cells exposed to kinin’s, for 24 h at 37 °C [29, 30] was studied next. Thus, h-CM cells isolated from multiple human donor eyes were cultured as described above and then serum-starved for 24 h prior to the addition of any test compound. Cells were incubated with the vehicle or test compound for 24 hours at 37 °C after which the medium was collected and concentrated ten-fold using Centricon concentrators (Millipore Corp., Bellireca, MA). Equal volumes of this concentrate were loaded on 10% SDS-polyacrylamide gels (SDS-PAGE) and the proteins separated and transferred to nitrocellulose membranes. The membranes were then blocked with 5% non-fat dry milk (Bio-Rad Laboratories, Hercules, CA) followed by incubation with antibodies to pro-MMP-1, pro-MMP-2, or pro-MMP-3 for 12 hours at 4 °C with gentle shaking. After washing, these membranes were incubated with appropriate secondary antibodies (HRP-conjugated; dilution 1:3000) for 1 hour at 20 °C. […] For chemiluminescent detection, the membranes were treated with enhanced chemiluminescent reagent (Amersham Pharmacia, Piscataway, NJ) and the signal was quantified using a Bio-Rad Versadoc imaging system (Bio-Rad Laboratories, Hercules, CA).

Test [2] deals with rabbit eyes. Briefly: IOP after intravitreal injection in Dutch-Belt rabbits. The following applies: for IOP reduction, rabbit: 50 µg intravitreal, n=7–10. It counts as in vivo, pigmented Dutch-Belt rabbit. The method, then: Intraocular pressure measurements
To extend our in vitro observations of the high density of B2-receptor protein in human and cynomolgus monkey ciliary muscle and non-pigmented ciliary epithelium, we studied the effects of topically administered BK (100 µg total dose in a sterile vehicle) on IOP in normotensive and TM-ablated hypertensive eyes of these animals. […] However, since we could not subject the monkeys to additional studies involving BK delivery to the eye interior, it was decided that intravitreal (ivt) injection of BK into pigmented Dutch-Belt rabbits would be worth pursuing. Thus, after light corneal anesthesia with 0.1% proparacaine, basal IOPs were determined in up to 10 Dutch-Belt rabbits using an Alcon Pneumotonometer (Alcon Laboratories Inc., Fort Worth, TX). After this time, 50 µg of BK (B2 agonist) or Des-Arg^9-BK (B1 agonist) in 20 µl of sterile basal salt solution (BSS plus), or just BSS plus vehicle, was injected ivt into one eye of each rabbit and the IOP determined at various times thereafter. Authors confirm adherence to the ARVO Statement for Animals in Ophthalmic and Vision Research, with all animal studies conducted according the guidelines for Animal Care and Use at Alcon Research Ltd.
Figure 8 Time-course of changes in rabbit intraocular pressure (IOP) with different kinin peptide agonists. Three groups of Dutch-Belt rabbits (n=7–10/group) were injected ivt in one eye with either vehicle or 50 µg of BK or 50 µg of Des-Arg^9-BK dissolved in the vehicle and the IOP monitored over time. Data are mean±SEM.

For test [3], the system named is CHO-B2 cells. The following applies: read-out: PGD2 production in CHO-B2 cells (EC50), 1 h at 37 °C, enzyme immunoassay. The method, then:
Measurement of prostaglandins in human ciliary muscle and Chinese hamster ovary cells expressing B2 receptors
This involved stimulating h-CM cells and CHO-B2 cells with various concentrations of test peptides and measuring the release of various PGs in the extracellular medium. The concentration-dependent effects of these peptides on total PGs, and specifically PGE2, PGF2α, and PGD2 release, were studied. Cells were grown as a monolayer in a 24-well plate (precoated with fibronectin) to confluence and subsequently serum-starved overnight before the experiment. On the day of the experiment, just before the drug was added, the wells were aspirated completely, and 990 µl basal medium and 10 µl 100× series of concentrations of the different peptide agonists were added to achieve the desired final concentrations of each compound (e.g., 0.1 nM to 10 µM). […] At the end of the incubation period, the cellular supernatants were collected and stored at −80 °C or used immediately to determine the PG content. Cell supernatants were tested for total PG levels and sub-species of PGs (PGE2, PGF2α, and PGD2) using specific competitive enzyme immunoassays (Cayman Chemical Co., Ann Arbor, MI) as directed in the manufacturer’s recommended protocols using the supplied standards and reagents. The limits of detection for various PGs were as follows: total PGs=29 pg/ml; PGE2=15 pg/ml; PGF2α=9 pg/ml; PGD2=200 pg/ml.

Test [4] deals with h-TM cells. The following applies: ref [23]; cited from earlier work.
In test [5] the test system is B1 subtype. Further details: method as in PMID 1313585. The following applies: ref [1]; cited from earlier work.
The subject of test [6] is h-CM cells. It counts as cell-based, human. The following applies: 1 h at 37 °C; enzyme immunoassay; mean ± SEM, 3 to 6 experiments; read-out: PGE2 production in h-CM cells (EC50).
For test [7], the system named is ERK1/2 phosphorylation, h-CM cells. Put plainly: ERK1/2 phosphorylation in h-CM cells (HTRF). The class given is cell-based, human. The note with it: 100 nM. The method, then: as §1
In the current assay, an homogeneous-time-resolved fluorescence (HTRF) assay (CisBio; Bedford, MA) was used. The HTRF assay is based on a sandwich immunoassay using an antiphospho-ERK1/2 antibody labeled with D2 and an anti-ERK1/2 antibody labeled with Eu^3+-Cryptate. In brief, h-CM cells (passage 7) were cultured in 96-well half-area white plates and incubated overnight, at 37 °C in CO2 atmosphere. […] Lysis buffer provided in the HTRF kit was used to lyse the cells at 23 °C with shaking for 30 min after the agonist treatment. HTRF conjugates containing phospho-ERK1/2 antibodies were then added to the lysates and incubated for an additional 2 h at 23 °C. The fluorescence signal was recorded using a Tecan M1000 fluorescence plate reader ([…]) at 620 nm for the donor and 665 nm for the acceptor.
A general note: In TR-FRET formats the signal depends on donor and acceptor labels being close together.

In test [8] the test system is h-CM cells. The class given is cell-based, human. The following applies: 1 h at 37 °C; enzyme immunoassay; mean ± SEM, 3 to 6 experiments; read-out: PGF2α production in h-CM cells (EC50).
The subject of test [9] is B2 subtype. Further details: method as in PMID 1313585. The following applies: ref [1]; cited from earlier work.
Test [10] deals with pro-MMP-1, h-CM cells. Briefly: pro-MMP-1 release from h-CM cells. The class given is cell-based, human. The note with it: BK 10 nM to 1 µM, 24 h at 37 °C; n=6. The method, then: as §1, §2

As usually defined, the EC50 is the concentration needed to bring the measured effect to its halfway point.

In the case of H-RPPGFSPFR-OH [BK], the “pro-MMP-3 release vs basal level” value in test [1] was determined as 1.41±0.09 fold. Moreover, the entries for the “IOP reduction, rabbit” value in [2] (5 h post-injection) and in [2] (8 h post-injection (maximal)) were 22.9±7.3% and 37.0±5.6%, respectively. Besides, the “Effect on rabbit IOP” value in [2] (BK 50 µg intravitreal, 5–8 h post injection) is listed as “time-dependent reduction in IOP; also recorded: robust lowering of the IOP”. Further, the EC50 in test [3] (first of two values in cell) was 0.0113 nM; in [3] (second of two values in cell), 0.181 nM; in [6] it was 8.9 ± 0.2 nM; in test [8], 15.9 ± 9.2 nM. In addition, the “ERK1/2 phosphorylation in h-TM cells” value in [4] is “stimulate ERK1/2 phosphorylation”. Moreover, the “Affinity for B1 subtype” value in test [5] was “low affinity”. Moreover, the “Increase in ERK1/2 phosphorylation (abstract)” value in test [7] is on record as “twofold”. The “Affinity for B2 subtype” value in test [9] is “high affinity”. Also, the “pro-MMP-1 release vs basal level” value in test [10] worked out at 3.12±0.46 fold.
